Experimental data: patent US20050136118A1, “Distribution and preparation of germicidal compositions” (priority 2003, published 2005)
“And” between values parts separate entries of the source, which are not always exact repeats. Identical values can stand only once. Like-named read-outs stand apart in the source and are kept apart here.

Columns and labels:
[1] = system: Bacillus subtilis spores; details: cited from earlier work
[2] = system: Bacillus subtilis spores; assay: spore suspension test, killing of Bacillus subtilis spores; type: cell-based; details: for Log Reduction/mL, 8 hr: 8 hr exposure; for Log Reduction/mL, 24 hr: 24 hr exposure; for Log Reduction/mL (3 hr, 20° C., pH = 8): 3 hr exposure; for Log Reduction/mL, 4 hr: 4 hr exposure
[3] = system: spores; details: 0.3% (w/v) NaHCO3 added; cited from earlier work
[4] = storage stability of phthalaldehyde solution (loss by Cannizzaro reaction); type: physicochemical; details: about 11 weeks
Text: Overall, the Cannizzaro reaction generally leads to loss of phthalaldehyde and a decrease in the germicidal efficacy of the solution. While a pH of from 6 to 10, or 7.5 to 9 generally enhances the efficacy of the phthalaldehyde-carbonate solution, the higher or alkaline pH also generally promotes the Cannizzaro reaction. […] However, about 14% of the phthalaldehyde may be lost if the same solution is stored for about 11 weeks at a pH of 9, at room temperature. Even more of the phthalaldehyde may be converted if the storage period is longer, if the temperature is higher, or if the pH is higher than 9.

[5] = cited from earlier work
[6] = system: Bacillus subtilis spores; details: cited from earlier work; remark: listed apart in the source
[7] = system: Clostridium sporogenes spores; details: cited from earlier work
[8] = system: Mycobacterium bovis BCG; details: at least 0.25% by weight phthalaldehyde as sole active ingredient, 20° C.; cited from earlier work
[9] = pH range of 3 to 9; cited from earlier work
[10] = 20° C., composition and pH per label
[11] = 0.25% phthalaldehyde as sole active ingredient, 20° C.

**Q.** With OCl [sodium hypochlorite] as the compound, how does the “effect of salt concentration on sporicidal activity” value (“effect of salt concentration” below) ([1]; salt ranging from 0 to 1M) read?
**A.** not affected

**Q.** For [F-].[K+] [1000 mM KF, potassium fluoride], which “Log Reduction/mL, 8 hr” value ([2]; 20° C.) is on record?
**A.** 0.0 log/mL

**Q.** What about the “Log Reduction/mL, 24 hr” value ([2]; 20° C.) of the same compound?
**A.** 0.1 log/mL

**Q.** And the “Log Reduction/mL (3 hr, 20° C., pH = 8)” value [2]?
**A.** 0.0 log/mL

**Q.** With [F-].[Na+] [1000 mM NaF, sodium fluoride] as the compound, how does the “Log Reduction/mL, 8 hr” value ([2]; 20° C.) read?
**A.** 0.0 log/mL

**Q.** With CCCC=O [butyraldehyde] as the compound, how does the “effect of addition of NaHCO3 on sporicidal action” value [3] read?
**A.** did not affect

**Q.** What does the source list for [Br-].[Na+] [1000 mM NaBr, sodium bromide]?
**A.** Log Reduction/mL, 4 hr [2, 10]: 0.0 log/mL; Log Reduction/mL, 24 hr ([2]; 20° C.): 0.1 log/mL

**Q.** Which “Log Reduction/mL (3 hr, 20° C., pH = 8)” value [2] does the source give for [I-].[K+] [1000 mM KI, potassium iodide] here?
**A.** 0.0 log/mL

**Q.** Which results are given for O=CCCCC=O [2.4% Glutaraldehyde, glutaraldehyde]?
**A.** Log Reduction/mL (3 hr, 20° C., pH = 8) [2]: <1.1 log/mL; effect of salt concentration on sporicidal activity ([1]; salt ranging from 0 to 1M): increasing with an increase in concentration of sodium bicarbonate or sodium chloride

**Q.** With Oc1ccccc1 [phenol] as the compound, how does the “effect of salt concentration” value [1] read?
**A.** not affected

**Q.** For [F-].[Li+] [100 mM LiF, lithium fluoride], which “Log Reduction/mL, 24 hr” value ([2]; 20° C.) is on record?
**A.** 0.0 log/mL

**Q.** With CC(=O)OO [peracetic acid] as the compound, how does the “effect of salt concentration” value ([1]; salt ranging from 0 to 1M) read?
**A.** not affected

**Q.** What does the source list for [I-].[Na+] [1000 mM NaI, sodium iodide]?
**A.** Log Reduction/mL, 4 hr [2, 10]: 0.0 log/mL; Log Reduction/mL, 8 hr ([2]; 20° C.): 0.0 log/mL; Log Reduction/mL, 24 hr ([2]; 20° C.): 0.1 log/mL

**Q.** What does the source list for O=Cc1ccccc1C=O [0.3% OPA, phthalaldehyde]?
**A.** Log Reduction/mL, 2 hr ([2]; 20° C., 2 hr exposure, composition and pH per label): 0.4 log/mL; Log Reduction/mL, 6 hr ([2]; 20° C., 6 hr exposure): 0.7 log/mL; Log Reduction/mL, 8 hr ([2]; 20° C.): ~0.6 log/mL; Log Reduction/mL (3 hr, 20° C., pH = 8) [2]: 0.10 log/mL; Log Reduction/mL (20° C., 4 hrs), [NaHCO3], 63 mM ([2]; 4 hrs, labelled solution additionally contains 63 mM NaHCO3): 1.5 log/mL and 1.4 log/mL; Log Reduction/mL (20° C., 4 hrs), [Phosphate], 63 mM ([2]; 4 hrs, labelled solution additionally contains 63 mM phosphate): 0.7 log/mL; Log Reduction/mL (20° C., 4 hrs), [NaF], 400 mM ([2]; 4 hrs, labelled solution additionally contains 400 mM NaF): 4.7 log/mL; Log Reduction/mL (20° C., 4 hrs), [NaF], 0 mM ([2]; 4 hrs, no NaF added to the labelled solution): 0.4 log/mL; Log Reduction/mL (20° C., 4 hrs), [NaHCO3], 0 mM ([2]; 4 hrs, no NaHCO3): 0.5 log/mL; Log Reduction/mL (20° C., 4 hrs), [Phosphate], 0 mM ([2]; 4 hrs, no phosphate): 0.4 log/mL; loss of phthalaldehyde on storage ([4]; pH 7 or lower, room temperature to about 40° C.): without a noticeable loss; phthalaldehyde lost on storage ([4]; pH 9, room temperature): about 14%; solubility in water [5]: about 5 % by weight; time for sporicidal activity [6, 11]: 24 h; time to achieve sterilization ([6]; 1.0% phthalaldehyde): 10 h; time for sporicidal activity [7, 11]: 24 h; time to achieve sterilization ([7]; 1.0% phthalaldehyde): 10 h; time to kill all Mycobacterium bovis BCG in contact (high-level disinfection) [8]: ≤ 10 min; storage stability of single-component compositions [9]: excellent stability

**Q.** With cupric ascorbate as the compound, how does the “effect of salt concentration” value ([1]; salt ranging from 0 to 1M) read?
**A.** not affected

**Q.** For O=CC=O [glyoxal], which “effect of addition of NaHCO3 on sporicidal action” value [3] is on record?
**A.** did not affect

**Q.** With [Cl-].[Na+] [1000 mM NaCl, sodium chloride] as the compound, how does the “Log Reduction/mL, 24 hr” value ([2]; 20° C.) read?
**A.** 0.2 log/mL

**Q.** With OO [hydrogen peroxide] as the compound, how does the “effect of salt concentration” value ([1]; salt ranging from 0 to 1M) read?
**A.** not affected
